Assay [1] in a line: Inhibition of HDAC in human HeLa cell nuclear extracts using (Boc-Lys(Ac)-AMC as substrate preincubated for 5 mins followed by substrate addition measured after 30 mins by fluorescence assay. The format is cell-based.
A further assay has as its system MOLT-4. Description: Antiproliferative activity against human MOLT4 cells after 48 hrs by MTT assay. The format is functional, cell-based. The following applies: MOLT-4, 48 h. On the technique in general: Tetrazolium assays rely on reduction of a dye to a coloured formazan, in cell work by metabolically active cells.
Another assay has as its system HeLa. Description: Antiproliferative activity against human HeLa cells after 48 hrs by MTT assay. The format is functional, cell-based.
The next assay addresses Histone deacetylase 3 (Homo sapiens, UniProt O15379). Kind of assay: Inhibition of HDAC3 (unknown origin) using Ac-Leu-GlyLys(Ac)-AMC as substrate preincubated for 5 mins followed by substrate addition measured after 30 mins by fluorescence assay.
The target in assay [2] is T1, Protein deacetylase HDAC6 (Homo sapiens, UniProt Q9UBN7).
T1 sequence (Q9UBN7 whole entry): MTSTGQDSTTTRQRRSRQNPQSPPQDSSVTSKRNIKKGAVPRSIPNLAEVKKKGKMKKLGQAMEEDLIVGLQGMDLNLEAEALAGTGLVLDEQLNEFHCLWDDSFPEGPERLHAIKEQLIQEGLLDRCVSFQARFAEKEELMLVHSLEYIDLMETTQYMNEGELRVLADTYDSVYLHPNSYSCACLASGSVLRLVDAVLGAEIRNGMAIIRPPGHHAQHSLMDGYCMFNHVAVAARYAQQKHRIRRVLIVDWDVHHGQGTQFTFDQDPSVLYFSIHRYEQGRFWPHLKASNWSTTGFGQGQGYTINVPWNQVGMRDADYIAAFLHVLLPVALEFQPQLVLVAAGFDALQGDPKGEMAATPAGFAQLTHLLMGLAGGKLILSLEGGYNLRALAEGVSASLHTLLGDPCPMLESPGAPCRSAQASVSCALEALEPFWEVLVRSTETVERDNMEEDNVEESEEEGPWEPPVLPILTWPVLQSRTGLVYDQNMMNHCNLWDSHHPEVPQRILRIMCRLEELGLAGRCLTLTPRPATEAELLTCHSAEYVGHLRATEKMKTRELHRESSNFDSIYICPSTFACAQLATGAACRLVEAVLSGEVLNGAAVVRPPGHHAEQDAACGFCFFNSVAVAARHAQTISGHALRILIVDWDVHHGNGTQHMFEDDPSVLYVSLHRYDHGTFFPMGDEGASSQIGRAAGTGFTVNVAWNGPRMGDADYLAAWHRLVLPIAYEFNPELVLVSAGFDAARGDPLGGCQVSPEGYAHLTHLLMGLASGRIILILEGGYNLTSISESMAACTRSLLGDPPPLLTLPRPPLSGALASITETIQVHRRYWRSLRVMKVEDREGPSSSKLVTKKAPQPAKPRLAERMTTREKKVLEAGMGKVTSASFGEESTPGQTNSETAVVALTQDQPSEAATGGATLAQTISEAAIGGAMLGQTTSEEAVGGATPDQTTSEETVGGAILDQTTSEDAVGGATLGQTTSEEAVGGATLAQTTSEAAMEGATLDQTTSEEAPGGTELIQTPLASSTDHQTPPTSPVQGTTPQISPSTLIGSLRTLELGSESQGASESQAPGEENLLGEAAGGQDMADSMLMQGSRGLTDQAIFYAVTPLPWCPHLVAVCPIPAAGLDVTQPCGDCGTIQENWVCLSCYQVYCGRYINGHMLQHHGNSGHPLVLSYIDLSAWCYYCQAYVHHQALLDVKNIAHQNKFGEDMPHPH
Description: Inhibition of HDAC6 (unknown origin) using Ac-Leu-GlyLys(Ac)-AMC as substrate preincubated for 5 mins followed by substrate addition measured after 30 mins by fluorescence assay.

The subject of another assay is PC-3. Description: Antiproliferative activity against human PC3 cells after 48 hrs by MTT assay. The format is functional, cell-based. The following applies: PC-3, 48 h.
The next assay concerns the target Histone deacetylase 1 (Homo sapiens, UniProt Q13547). Description: Inhibition of HDAC1 (unknown origin) using Ac-Leu-GlyLys(Ac)-AMC as substrate preincubated for 5 mins followed by substrate addition measured after 30 mins by fluorescence assay.
Another assay deals with Histone deacetylase 2 (Homo sapiens, UniProt Q92769). Kind of assay: Inhibition of HDAC2 (unknown origin) using Ac-Leu-GlyLys(Ac)-AMC as substrate preincubated for 5 mins followed by substrate addition measured after 30 mins by fluorescence assay.
Sequence of Histone deacetylase 2 (Q92769 whole entry): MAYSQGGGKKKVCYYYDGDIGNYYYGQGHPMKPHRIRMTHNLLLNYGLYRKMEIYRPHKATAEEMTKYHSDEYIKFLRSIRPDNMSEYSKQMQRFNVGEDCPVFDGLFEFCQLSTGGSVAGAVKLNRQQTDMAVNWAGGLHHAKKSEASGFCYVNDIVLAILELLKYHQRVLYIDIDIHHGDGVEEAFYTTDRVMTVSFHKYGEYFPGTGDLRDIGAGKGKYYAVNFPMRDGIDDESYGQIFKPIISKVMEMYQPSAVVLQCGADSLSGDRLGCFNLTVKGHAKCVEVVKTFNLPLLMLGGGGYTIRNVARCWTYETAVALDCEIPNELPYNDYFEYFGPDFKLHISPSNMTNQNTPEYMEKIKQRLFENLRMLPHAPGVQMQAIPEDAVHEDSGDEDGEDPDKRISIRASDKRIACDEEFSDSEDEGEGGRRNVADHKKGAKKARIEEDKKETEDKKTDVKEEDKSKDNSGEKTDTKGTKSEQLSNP
Another assay has as its system K562. Description: Antiproliferative activity against human K562 cells after 48 hrs by MTT assay. The format is functional, cell-based. The following applies: K562, 48 h.
A further assay has as its system HEL. Kind of assay: Antiproliferative activity against human HEL cells after 48 hrs by MTT assay. The format is functional, cell-based.

Sequence of Histone deacetylase 1 (Q13547 whole entry): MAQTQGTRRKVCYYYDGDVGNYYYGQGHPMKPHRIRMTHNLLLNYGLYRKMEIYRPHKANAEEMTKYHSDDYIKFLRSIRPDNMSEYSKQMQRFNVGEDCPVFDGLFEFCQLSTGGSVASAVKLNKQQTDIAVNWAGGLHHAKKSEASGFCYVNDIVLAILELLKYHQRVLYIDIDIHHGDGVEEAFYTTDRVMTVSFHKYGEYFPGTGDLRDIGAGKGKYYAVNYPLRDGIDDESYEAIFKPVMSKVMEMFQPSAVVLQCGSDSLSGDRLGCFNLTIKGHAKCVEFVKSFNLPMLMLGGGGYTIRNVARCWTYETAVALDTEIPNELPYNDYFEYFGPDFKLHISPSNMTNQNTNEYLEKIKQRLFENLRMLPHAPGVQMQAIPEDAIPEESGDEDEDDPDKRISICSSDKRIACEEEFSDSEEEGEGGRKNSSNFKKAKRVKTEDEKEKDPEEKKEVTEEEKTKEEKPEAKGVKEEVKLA
Sequence of Histone deacetylase 3 (O15379 whole entry): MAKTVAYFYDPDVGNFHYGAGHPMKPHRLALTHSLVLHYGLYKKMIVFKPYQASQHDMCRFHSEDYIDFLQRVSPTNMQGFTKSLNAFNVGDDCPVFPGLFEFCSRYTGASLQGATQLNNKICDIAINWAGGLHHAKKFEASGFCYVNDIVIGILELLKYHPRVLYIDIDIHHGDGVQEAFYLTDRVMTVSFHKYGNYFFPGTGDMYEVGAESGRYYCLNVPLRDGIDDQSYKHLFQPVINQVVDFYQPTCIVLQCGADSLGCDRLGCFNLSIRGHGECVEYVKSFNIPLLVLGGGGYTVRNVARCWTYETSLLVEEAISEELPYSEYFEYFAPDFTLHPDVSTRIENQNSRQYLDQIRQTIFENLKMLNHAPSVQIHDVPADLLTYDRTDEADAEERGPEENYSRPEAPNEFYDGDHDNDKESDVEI

The IC50 is the midpoint of a concentration-inhibition curve. The low end stands for greater potency in that assay, the high end for weaker potency in that assay. In [1], `COc1cc(/C=C/C(=O)NO)ccc1OC[C@H](Cc1c[nH]c2ccccc12)NC(=O)CCc1ccccc1` returned an IC50 of 21.7 nM.

For the compound `COc1cc(/C=C/C(=O)NO)ccc1OC[C@H](Cc1c[nH]c2ccccc12)NC(=O)c1cccc(Br)c1`, the midpoint of inhibition in [1], the IC50, lay at 19.5 nM. Still for that read-out and setting: under `COc1cc(/C=C/C(=O)NO)ccc1OC[C@H](Cc1c[nH]c2ccccc12)NC(=O)c1ccccc1F` stands 76.5 nM. For `COc1ccc(C(=O)N[C@H](COc2ccc(/C=C/C(=O)NO)cc2OC)Cc2c[nH]c3ccccc23)cc1`, the IC50 in the assay on MOLT-4 was 60 nM; in assay [1] it was 9.6 nM; in the assay with HeLa, 430 nM; on Histone deacetylase 3, 7.1 nM; in assay [2], 87 nM; with PC-3 it was 1000 nM. The concentration for half-maximal inhibition (IC50) worked out at 17.5 nM against Histone deacetylase 1, 59.5 nM against Histone deacetylase 2, 280 nM in the assay with K562 and 130 nM in the assay on HEL. Compound `COc1cc(/C=C/C(=O)NO)ccc1OC[C@H](Cc1c[nH]c2ccccc12)NC(=O)c1ccc(NC(C)=O)cc1O` returned a half-inhibitory concentration (IC50) in assay [1] of 47.1 nM.

For `COc1cc(/C=C/C(=O)NO)ccc1OC[C@H](Cc1c[nH]c2ccccc12)NC(=O)c1ccccc1C`, the IC50 in assay [1] is 102 nM. Still for that read-out and setting: under `COc1cc(/C=C/C(=O)NO)ccc1OC[C@H](Cc1c[nH]c2ccccc12)NC(=O)c1cccc(F)c1` stands 60 nM; under `COc1cccc(C(=O)N[C@H](COc2ccc(/C=C/C(=O)NO)cc2OC)Cc2c[nH]c3ccccc23)c1`, 14.1 nM.

Compound `COc1cc(/C=C/C(=O)NO)ccc1OC[C@H](Cc1c[nH]c2ccccc12)NC(=O)c1cccc(C)c1` showed an IC50 in [1] of 24.2 nM.

The compound `COc1cc(/C=C/C(=O)NO)ccc1OC[C@H](Cc1c[nH]c2ccccc12)NC(=O)c1ccc([N+](=O)[O-])cc1` gave an IC50 in [1] of 60.7 nM. The same measure, in the same setting: under `COc1cc(/C=C/C(=O)NO)ccc1OC[C@H](Cc1c[nH]c2ccccc12)NC(=O)Cc1ccccc1` stands 54.8 nM; under `COc1cc(/C=C/C(=O)NO)ccc1OC[C@H](Cc1c[nH]c2ccccc12)NC(=O)c1cccc([N+](=O)[O-])c1`, 34.4 nM. Compound `COc1cc(/C=C/C(=O)NO)ccc1OC[C@H](Cc1c[nH]c2ccccc12)NC(=O)c1ccc(Cl)cc1Cl` displayed a half-inhibitory concentration (IC50) in assay [1] of 95 nM. For `COc1cc(/C=C/C(=O)NO)ccc1OC[C@H](Cc1c[nH]c2ccccc12)NC(=O)c1cccc(Cl)c1`, the IC50 is 60 nM in the assay with MOLT-4; 14.4 nM in [1]; 430 nM in the assay with HeLa; 1000 nM in the assay with PC-3; 280 nM with K562; 130 nM in the assay on HEL. Take `COc1cc(/C=C/C(=O)NO)ccc1OC[C@H](Cc1c[nH]c2ccccc12)NC(=O)c1ccc(C)cc1`: the IC50 in the assay on MOLT-4 is 40 nM; in assay [1], 8.1 nM; in the assay with HeLa it was 310 nM; in the assay with PC-3, 1090 nM; in the assay with K562, 320 nM; in the assay on HEL, 150 nM. Turning to `COc1cc(/C=C/C(=O)NO)ccc1OC[C@H](Cc1c[nH]c2ccccc12)NC(=O)c1ccccc1Cl`, in assay [1], the IC50 was 22.5 nM.

For `COc1cc(/C=C/C(=O)NO)ccc1OC[C@H](Cc1c[nH]c2ccccc12)NC(=O)c1ccc(Cl)cc1`, the IC50 in assay [1] stood at 23.3 nM.

With `COc1cc(/C=C/C(=O)NO)ccc1OC[C@H](Cc1c[nH]c2ccccc12)NC(=O)c1ccc(F)cc1`, the midpoint of inhibition in assay [1], the IC50, lay at 48.6 nM. Same read-out and setting: the result for `COc1cc(/C=C/C(=O)NO)ccc1OC[C@H](Cc1c[nH]c2ccccc12)NC(=O)c1ccccc1[N+](=O)[O-]` reads 75.7 nM; that for `COc1cc(/C=C/C(=O)NO)ccc1OC[C@H](Cc1c[nH]c2ccccc12)NC(=O)c1ccccc1Br`, 62.2 nM. Regarding `COc1cc(/C=C/C(=O)NO)ccc1OC[C@H](Cc1c[nH]c2ccccc12)NC(=O)c1ccccc1`, the IC50 in [1] turned out to be 15.8 nM. As to `COc1cc(/C=C/C(=O)NO)ccc1OC[C@H](Cc1c[nH]c2ccccc12)NC(=O)c1ccc(Br)cc1`, the half-inhibitory concentration (IC50) in the assay with MOLT-4 turned out to be 60 nM; in [1] it was 12.1 nM; with HeLa, 580 nM; in the assay on PC-3, 1250 nM; in the assay with K562, 510 nM; in the assay with HEL, 210 nM. Regarding `COc1cc(/C=C/C(=O)NO)ccc1OC[C@H](Cc1c[nH]c2ccccc12)NC(=O)c1ccccc1OC`, it took 60 nM to reach half-maximal inhibition in [1] (IC50). Same read-out and setting: under `COc1cc(/C=C/C(=O)NO)ccc1OC[C@H](Cc1c[nH]c2ccccc12)NC(=O)c1ccc(Br)cc1Cl` stands 114 nM; under `COc1cc(/C=C/C(=O)NO)ccc1OC[C@H](Cc1c[nH]c2ccccc12)NC(=O)CCCc1ccccc1`, 42.4 nM.
